# Columns and labels:
# 5XFAD mice = test: Synaptic loss in hippocampal CA1 area of 5XFAD mice; type: in vivo
# Protocol: Protocol: DCPLA (20 mg/m^2, tail vein injection) was administered to 2-month old 5XFAD mice twice a week. At five months old, hippocampal slices from the brains of the mice were processed for immunohistochemistry and confocal microscopy analysis. Results are shown for analysis of spinophilin density (A, B), synaptophysin density (A, D) not caused by axonal bouton (synaptophysin granules) (C) and neuronal loss (E, F). […] Non-treated groups (wild-type and transgenic (Tg) mice) received the same vehicle volumes, mechanism of delivery, and frequency of administration as the treated groups.
# human neprilysin = test: Membrane localization of neprilysin in SH+hNEP cells (biotinylation, Western blot); type: cell-based; conditions: 1 nM
# Protocol: Protocols: SHSYSY cells overexpressing human neprilysin (SH+hNEP cells) were incubated with 1 μM oligomeric Aβ(1-42) for 4 hours in the absence or presence of bryostatin (Bryo, 1 nM). Some cells were pre-treated with Ro 32-0432 (Ro, 2 μM, a PKC inhibitor) for 30 min and then treated with Bryo. Cell surface-located proteins were then biotinylated and extracted using streptavidin beads, followed by immunoprecipitation using a neprilysin antibody Immunoprecipitates were subjected to Western blot analysis using neprilysin antibody (Mean+SEM of three independent experiments, **P<0.01, Aβ compared with untreated; #P<0.01, Ro+Bryo compared with Bryo). Results are shown below in FIG. 17.
# Protocol: After SH+hNEP cells were untreated or treated with bryostatin (Bryo, 1 nM), or pre-treated with PKC inhibitor Ro 32-0432 (Ro, 2 μM) for 30 min and then treated with Bryo for 1 hour, cell surface located proteins were biotinylated and pulled down using streptavidin beads, followed by immunoprecipitation using a neprilysin antibody. […] Cells were then lysed and neprilysin activity was measured. […] Further incubation with leucine aminopeptidases released free 4-methoxy-2-naphthylamide that was measured fluorometrically at an emission of 425 nm. […]
# cerebral ischemia rats = test: Pyramidal cells, BDNF and synapses in dorsal hippocampal CA1 area after cerebral ischemia; type: in vivo; conditions: 15 μg/m^2 tail vein for 5 weeks beginning 24 hours after ischemic/hypoxic event
# Protocol: Protocol: Rats were administered bryostatin-1 (15 μg/m^2, tail vein injection) for 5 weeks beginning 24 hours after the end of the ischemic/hypoxic event. […] Non-treated groups received the same vehicle volumes, mechanism of delivery, and frequency of administration as the treated groups.
# mTBI mice = test: Minimal traumatic brain injury, MWM cognitive test; type: in vivo; conditions: 5× i.p. over 14 days; for mTBI induced learning deficits (MWM): injured mice
# Protocol: Protocol: One hour after the minimal traumatic brain injury was induced, the mice received a 5×i.p. bryostatin-1 injection treatment over a period of 14 days, in two injection doses 20 and 30 μg/kg (N=9 in each group). One hour after the last injection of the series, the cognitive ability of the mice was tested in the MWM. Mice were tested for 4 days 6 times a day. On day 5 the platform was removed and the mice memory retention was tested. […] Data was analyzed using repeated measure one way ANOVA and presented as mean±S.E.M. Both doses protected the learning abilities of the injured mice (pb0.01).
# [1] = tested on: healthy brown Norway rats; test: Mushroom spine formation in healthy rats after water maze training; type: in vivo; conditions: given during water maze training
# Description: Protocol: Non-diseased, healthy brown Norway rats (at 4-5 months old) were used in this study. Bryostatin enhanced the formation of mushroom spines in healthy rats after water maze training as shown in a-e. Memory retention after water maze training (4 swims per days for 5 days) increased the number of mushroom dendritic spine and synapses with (e) perforated postsynaptic densities (PSDs), but not with macular PSDs (d). […] Nv=naîve controls; Sw=swim controls; Mz=water maze treatment; and Mz/Br=water maze treatment plus bryostatin treatment.
# HuC and HuD proteins = test: Dendritic spines, presynaptic vesicles and HuC/HuD nuclear export in healthy rats after water maze training; type: in vivo; conditions: 10 μg/kg body weight intraperitoneal, 3 doses every other day; two days after 6-days of training
# Protocol: Protocol: Non-diseased, healthy brown Norway rats (at 4-5 months old) were used in this study. Two days after 6-days of training, increases in dendritic spines (a, b) and presynaptic vesicle concentration (a, d) within unchanged axonal bouton density (a, c) were correlated with an increase in the nuclear export of HuC and HuD proteins into the dendritic shaft as compared with naive and swim controls (a, e). Those changes were enhanced with bryostatin treatment (10 μg/kg body weight, intraperitoneal injection, 3 doses every other day). Nv=naîve controls; Sw=swim controls; Mz=water maze treatment; and Mz/Br=water maze treatment plus bryostatin treatment).
# sAPP-α = sAPP-α secretion in control cell lines; type: cell-based, human; conditions: 0.1 nM
# alpha-secretase = conditions: human fibroblasts; Etcheberrigaray et al. 2004; cited from earlier work
Structure (SMILES),"mushroom spine shape dendritic spines and synapses (5XFAD mice; 20 mg/m^2 tail vein twice a week from 2 months old, analysis at five months)",synaptic loss in hippocampal CA1 area (5XFAD mice; 5XFAD mice at 5 months old (FIG. 20)),"membrane localization of neprilysin protein inhibited by Aβ (human neprilysin; 1 μM oligomeric Aβ(1-42), 4 hours)","neprilysin membrane localization (human neprilysin; 1 hour, without Aβ)",immunofluorescence intensity of BDNF (cerebral ischemia rats),loss of dendritic spines and synapses (cerebral ischemia rats),neuronal loss (cerebral ischemia rats; 9 days after last dose),"acquisition of the learning task, mTBI group versus control mice (mTBI mice; 20 μg/kg)",learning of control uninjured mice (mTBI mice; 20 μg/kg),mTBI induced learning deficits (MWM) (mTBI mice; 20 μg/kg),learning of control uninjured mice (mTBI mice; 30 μg/kg),mTBI induced learning deficits (MWM) (mTBI mice; 30 μg/kg),mushroom spines with macular PSDs [1],mushroom spines with perforated PSDs [1],"training-induced increases in dendritic spines, presynaptic vesicle concentration and nuclear export of HuC and HuD proteins (HuC and HuD proteins)",sAPP-α secretion in two control cell lines (sAPP-α),activation of alpha-secretase (sAPP generation) (alpha-secretase)
"CCCCCC1CC1CC1CC1CCCCCCCC(=O)O (centres unmarked) [DCPLA, 8-[2-(2-pentylcyclopropyl)methyl]-cyclopropaneoctanoic acid]",protected the decrease in mushroom spine shape dendritic spines and synapses,prevents synaptic loss,,,,,,,,,,,,,,,
"CCC/C=C/C=C/C(=O)O[C@H]1/C(=C/C(=O)OC)C[C@H]2C[C@H]([C@@H](C)O)OC(=O)C[C@H](O)C[C@@H]3C[C@H](OC(C)=O)C(C)(C)[C@](O)(C[C@@H]4C/C(=C/C(=O)OC)C[C@H](/C=C/C(C)(C)[C@]1(O)O2)O4)O3 [Bryostatin, bryostatin-1]",,,recovers membrane localization of neprilysin protein inhibited by Aβ,enhances neprilysin membrane localization,induced an increase in the immunofluorescence intensity of brain-derived neurotrophic factor (BDNF),protected the loss of dendritic spines and synapses,prevented neuronal loss,improved their acquisition of the learning task even beyond that of control mice,no effect on uninjured mice,protected against the mTBI induced learning deficits,improved the learning of control uninjured mice,protected against the mTBI induced learning deficits,significantly increased,enhanced,enhanced,"effective in enhancing secretion in two control cell lines, although to a lesser extent than in the AD cell line",activate the alpha-secretase

# Source: patent publication US20160025704A1, “METHODS FOR IDENTIFYING NEUROPROTECTIVE PKC ACTIVATORS” (priority 2013, published 2016)
